Assay results from ChEMBL document CHEMBL3045070, “Identification of in vitro inhibitors of Mycobacterium tuberculosis Lysine -aminotransferase by pharmacophore mapping and three-dimensional flexible searches” (Med Chem Res, 2008).
Active and inactive are the calls of the source. The calls are words filed in the database; no cut-off is given here.

Legend:
[1] = target: T1, L-lysine-epsilon aminotransferase (Mycobacterium tuberculosis) (UniProt P9WQ77); assay: Inhibition of Mycobacterium tuberculosis lysine-epsilon aminotransferase at 600 uM
T1 sequence (whole entry): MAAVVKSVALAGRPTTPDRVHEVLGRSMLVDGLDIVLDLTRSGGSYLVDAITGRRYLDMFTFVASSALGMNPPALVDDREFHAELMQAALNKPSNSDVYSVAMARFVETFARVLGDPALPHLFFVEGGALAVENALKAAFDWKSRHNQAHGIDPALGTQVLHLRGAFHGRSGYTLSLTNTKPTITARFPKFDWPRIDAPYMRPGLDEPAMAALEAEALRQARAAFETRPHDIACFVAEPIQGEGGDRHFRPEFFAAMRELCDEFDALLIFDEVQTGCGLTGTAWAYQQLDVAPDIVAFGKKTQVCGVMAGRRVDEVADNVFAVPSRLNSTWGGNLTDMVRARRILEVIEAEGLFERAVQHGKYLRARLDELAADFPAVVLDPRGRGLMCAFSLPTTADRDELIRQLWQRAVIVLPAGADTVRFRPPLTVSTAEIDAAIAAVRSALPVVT

[2] = target: T1, L-lysine-epsilon aminotransferase (Mycobacterium tuberculosis); assay: Inhibition of Mycobacterium tuberculosis lysine-epsilon aminotransferase at 400 uM

Structure (SMILES) | inhibition [1] [%] | inhibition [2]
COc1ccc(CC(=O)NCC2c3[nH]c4ccccc4c3CC3C(=O)N(CCc4ccc(OC)c(OC)c4)C(=O)N32)cc1 (configuration not stated) | 60 | 
CN(CC(O)c1ccccc1)CC1CCCCN1C (configuration not stated) |  | Active
